Measurements published in ChEMBL document CHEMBL4371028, “Designing de Novo Small Molecules That Control Heat Shock Protein 70 (Hsp70) and Heat Shock Organizing Protein (HOP) within the Chaperone Protein-Folding Machinery” (J Med Chem, 2019).
Active and inactive are the calls of the source. The calls are words filed in the database; no cut-off is given here. Peptide text beside a SMILES is read from it. * marks the point of attachment. Biotin = O=C1N[C@H]2[C@H](CS[C@H]2CCCCC(=O)*)N1; PEG4 = NCCOCCOCCOCCOCCC(=O)O

Legend:
[1] = target: Stress-induced-phosphoprotein 1 (Homo sapiens) (UniProt P31948); assay: Inhibition of (2S,8S,11S,14S)-2-(4-aminobutyl)-14-(3-guanidinopropyl)-8-(4-hydroxybenzyl)-11-(hydroxymethyl)-4,7,10,13,16,32-hexaoxo-36-((3aS,4S,6aR)-2-oxohexahydro-1H-thieno[3,4-d]imidazol-4-yl)-19,22,25,28-tetraoxa-3,6,9,12,15,31-hexaazahexatriacontan-1-oic acid binding to His-tagged human HOP expressed in Escherichia coli up to 200 uM by Western blot analysis
Chain of Stress-induced-phosphoprotein 1 (Homo sapiens) (P31948 whole entry, looked up): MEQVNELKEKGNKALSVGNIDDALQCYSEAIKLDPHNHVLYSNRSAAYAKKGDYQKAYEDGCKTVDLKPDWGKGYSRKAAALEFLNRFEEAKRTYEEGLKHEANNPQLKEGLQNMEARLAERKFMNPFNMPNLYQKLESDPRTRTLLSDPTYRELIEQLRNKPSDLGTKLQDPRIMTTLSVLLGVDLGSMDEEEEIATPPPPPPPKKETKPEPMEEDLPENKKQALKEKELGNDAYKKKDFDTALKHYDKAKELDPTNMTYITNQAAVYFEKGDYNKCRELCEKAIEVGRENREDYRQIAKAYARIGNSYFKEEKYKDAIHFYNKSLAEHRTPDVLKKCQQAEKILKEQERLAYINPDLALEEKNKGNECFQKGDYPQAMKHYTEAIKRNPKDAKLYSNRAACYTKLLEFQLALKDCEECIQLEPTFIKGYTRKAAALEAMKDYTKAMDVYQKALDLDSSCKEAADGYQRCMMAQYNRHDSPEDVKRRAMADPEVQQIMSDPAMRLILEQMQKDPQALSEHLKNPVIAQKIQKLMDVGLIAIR

Homo sapiens [2] = species on record: Homo sapiens; assay: Binding affinity to human recombinant Hsp70 expressed in Escherichia coli at 10 to 200 uM in presence of 1% Triton-X-100 after 1 hr by Western blot analysis based pull down assay
[3] = target: Heat shock protein HSP90 (Homo sapiens) (UniProt P07900+P08238); assay: Binding affinity to Hsp90 (unknown origin) at 10 to 200 uM after 1 hr by Western blot analysis based pull down assay; format: protein assay
Homo sapiens [4] = species on record: Homo sapiens; assay: Binding affinity to human recombinant Hsp70 expressed in Escherichia coli in presence of 1% Triton-X-100 after 1 hr by Western blot analysis based pull down assay

| Structure (SMILES) | inhibition [1] | Activity (Homo sapiens [2]) | Activity [3] | Activity (Homo sapiens [4]) |
| --- | --- | --- | --- | --- |
| N=C(N)NCCC[C@H](NC(=O)[C@H](CO)NC(=O)[C@H](Cc1ccc(O)cc1)NC(=O)CNC(=O)[C@@H](N)CCCCN)C(=O)O (H-KGYSR-OH) | Active | – | – | – |
| CC(C)C[C@H](NC(=O)[C@H](C)NC(=O)[C@H](C)NC(=O)CCOCCOCCOCCOCCNC(=O)CCCC[C@@H]1SC[C@@H]2NC(=O)N[C@@H]21)C(=O)N[C@@H](CCC(=O)O)C(=O)N[C@@H](Cc1ccccc1)C(=O)O ({Biotin-PEG4}-AALEF-OH) | – | inactive | inactive | – |
| N=C(N)NCCC[C@H](NC(=O)[C@H](CO)NC(=O)[C@H](Cc1ccc(O)cc1)NC(=O)CNC(=O)[C@H](CCCCN)NC(=O)CCOCCOCCOCCOCCNC(=O)CCCC[C@@H]1SC[C@@H]2NC(=O)N[C@@H]21)C(=O)O ({Biotin-PEG4}-KGYSR-OH) | – | – | inactive | Dose-dependent effect |
